Test: wn = mass fraction of the nth substance listed
Details: Liquid; for viscosity: Falling or rolling sphere viscometry; for mass density: Vibrating tube method

OCCN(CCO)CCO [triethanolamine] + O
Details | mass density, w1 = 0.0992 [kg/m3] | mass density, w1 = 0.2 [kg/m3] | mass density, w1 = 0.2991 [kg/m3] | mass density, w1 = 0.4 [kg/m3] | viscosity, w1 = 0.0992 [mPa·s] | viscosity, w1 = 0.2 [mPa·s] | viscosity, w1 = 0.2991 [mPa·s] | viscosity, w1 = 0.4 [mPa·s]
373.15 K, 30000 kPa | 985.1 | 998.4 | 1012.5 | 1027.7 | 0.3632 | 0.4601 | 0.6109 | 0.8363
373.15 K, 40000 kPa | 989.4 | 1002.6 | 1016.8 | 1032 | 0.3659 | 0.4638 | 0.6193 | 0.8525
373.15 K, 50000 kPa | 993.4 | 1006.7 | 1020.7 | 1035.7 | – | – | – | –
373.15 K, 60000 kPa | 997.4 | 1010.6 | 1024.6 | 1039.7 | 0.3738 | 0.4753 | 0.6379 | 0.8789
373.15 K, 70000 kPa | 1001.4 | 1014.5 | 1028.4 | 1043.5 | – | – | – | –
373.15 K, 80000 kPa | 1005.3 | 1018.5 | 1032.4 | 1047.3 | 0.3807 | 0.4864 | 0.655 | 0.9114
373.15 K, 90000 kPa | 1009.1 | 1022.1 | 1036 | 1050.8 | – | – | – | –
373.15 K, 100000 kPa | 1012.7 | 1025.7 | 1039.5 | 1054.3 | 0.3871 | 0.4953 | 0.6721 | 0.9403
373.15 K, 110000 kPa | 1016.4 | 1029.4 | 1043.1 | 1057.9 | – | – | – | –
373.15 K, 120000 kPa | 1019.9 | 1032.9 | 1046.8 | 1061.3 | – | – | – | –
373.15 K, 130000 kPa | 1023.3 | 1036.2 | 1050.1 | 1064.6 | – | – | – | –
373.15 K, 140000 kPa | 1026.8 | 1039.7 | 1053.4 | 1067.8 | – | – | – | –
393.15 K, 100 kPa | 956.1 | 969.2 | 982.9 | 998.1 | – | – | – | –
393.15 K, 500 kPa | 956.4 | 969.5 | 983.3 | 998.5 | – | – | – | –
393.15 K, 1000 kPa | 956.6 | 969.7 | 983.5 | 998.6 | – | – | – | –
393.15 K, 2000 kPa | 957.1 | 970.2 | 984 | 999.1 | – | – | – | –
393.15 K, 5000 kPa | 958.6 | 971.7 | 985.5 | 1000.6 | 0.2913 | 0.3551 | 0.4515 | 0.5873
393.15 K, 10000 kPa | 961.1 | 974.2 | 988 | 1003.1 | 0.2912 | 0.3579 | 0.4583 | 0.5948
393.15 K, 15000 kPa | 963.4 | 976.5 | 990.3 | 1005.4 | 0.2933 | 0.3633 | 0.4629 | 0.6019
393.15 K, 20000 kPa | 965.9 | 978.9 | 992.7 | 1007.8 | 0.295 | 0.362 | 0.4675 | 0.609
393.15 K, 25000 kPa | – | – | – | – | 0.2963 | 0.3674 | 0.4703 | 0.6136
393.15 K, 30000 kPa | 970.4 | 983.5 | 997.3 | 1012.4 | 0.2988 | 0.3659 | 0.4738 | 0.6246
393.15 K, 40000 kPa | 974.9 | 988 | 1001.8 | 1016.7 | 0.3022 | 0.3704 | 0.4822 | 0.6362
393.15 K, 50000 kPa | 979.2 | 992.3 | 1006 | 1021 | – | – | – | –
393.15 K, 60000 kPa | 983.5 | 996.5 | 1010.2 | 1025.2 | 0.308 | 0.3798 | 0.4973 | 0.6588
393.15 K, 70000 kPa | 987.7 | 1000.7 | 1014.4 | 1029.3 | – | – | – | –
393.15 K, 80000 kPa | 991.7 | 1004.6 | 1018.3 | 1033.1 | 0.3138 | 0.3888 | 0.5121 | 0.6835
393.15 K, 90000 kPa | 995.7 | 1008.6 | 1022.3 | 1037.1 | – | – | – | –
393.15 K, 100000 kPa | 999.4 | 1012.3 | 1026.1 | 1040.7 | 0.32 | 0.3982 | 0.5378 | 0.7054
393.15 K, 110000 kPa | 1003.3 | 1016.1 | 1029.8 | 1044.5 | – | – | – | –
393.15 K, 120000 kPa | 1006.9 | 1019.8 | 1033.4 | 1048.1 | – | – | – | –
393.15 K, 130000 kPa | 1010.4 | 1023.4 | 1036.9 | 1051.5 | – | – | – | –
393.15 K, 140000 kPa | 1014.1 | 1026.9 | 1040.5 | 1055 | – | – | – | –
